Several values for one entry are separate records, joined by “and”; a condition that tells them apart may be missing. Identical values can stand only once. Counter-ions that a name gives are not always drawn. Like-named read-outs stand apart in the source and are kept apart here.
What was measured:
[1] = target: T1, recombinant human AChE (Homo sapiens, UniProt P22303); assay: biochemical
[2] = target: AChE in SH-SY5Y cells (Homo sapiens, UniProt P22303); assay: cell-based
[3] = target: T1, recombinant human AChE

T1 sequence (P22303 32-614): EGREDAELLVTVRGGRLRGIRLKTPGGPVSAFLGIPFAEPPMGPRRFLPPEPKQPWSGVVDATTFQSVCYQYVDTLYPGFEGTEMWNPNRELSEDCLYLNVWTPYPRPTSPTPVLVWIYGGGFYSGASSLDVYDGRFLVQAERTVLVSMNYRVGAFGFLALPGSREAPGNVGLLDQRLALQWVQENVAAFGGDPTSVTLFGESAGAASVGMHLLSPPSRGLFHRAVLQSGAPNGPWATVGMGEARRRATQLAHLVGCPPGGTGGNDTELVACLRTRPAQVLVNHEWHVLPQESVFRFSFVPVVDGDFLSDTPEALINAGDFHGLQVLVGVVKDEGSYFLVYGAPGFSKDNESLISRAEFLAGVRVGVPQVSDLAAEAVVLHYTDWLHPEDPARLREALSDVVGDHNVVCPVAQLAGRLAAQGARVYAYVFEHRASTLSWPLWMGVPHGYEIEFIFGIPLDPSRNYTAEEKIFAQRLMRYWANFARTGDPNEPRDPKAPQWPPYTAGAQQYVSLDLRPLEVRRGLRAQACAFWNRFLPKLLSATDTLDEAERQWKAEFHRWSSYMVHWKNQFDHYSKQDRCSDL
Chain of AChE in SH-SY5Y cells (P22303 32-614): as above

SMILES | AChE inhibition (result in words) [1] | CC-v2 (curve classes) [2] | IC50 ([2]; read-out: IC50) | CC-v2 (curve classes) [1] | Efficacy [1] | IC50 ([1]; read-out: IC50) | CC-v2 (curve classes) [3] | Efficacy [3] | IC50 [3] [µM] | IC50 ([2]; IC50 (uM)) | IC50 ([1]; IC50 (uM))
CC1(C)Cc2cccc(O)c2O1 [2,3-Dihydro-2,2-dimethyl-7-benzofuranol, reference compound] | inactive |  |  |  |  |  |  |  |  |  | 
Nc1ccc(N)c(Cl)c1.O=S(=O)(O)O [2-Chloro-1,4-diaminobenzene sulfate] |  | -1.1 and -2.1 | 22.4 µM and 20 µM | -1.1 | -68.64 | 8.94 µM | 4 | -13.066 |  |  | 
CCN1C(=CC=Cc2sc3ccccc3[n+]2CC)Sc2ccccc21.[I-] [3,3'-Diethylthiacarbocyanine iodide] |  | -2.1 and -2.2 | 10.7 µM and 15.1 µM | -3 | -76.506 | 19 µM | 4 | 0 |  |  | 
Cc1ccc2c(c1)OCC(=O)CO2 [7-Methyl-2H-1,5-benzodioxepin-3(4H)-one] |  | -2.1 | 35.6 µM and 31.7 µM | -2.2 | -48.628 | 79.6 µM | 4 | 0 |  |  | 
C[C@H]1[C@@H]2Cc3ccc(O)cc3[C@@]1(C)CCN2C.C[C@H]1[C@@H]2Cc3ccc(O)cc3[C@@]1(C)CCN2C.O=C(O)/C=C/C(=O)O [(+)-Metazocine fumarate (2:1)] |  | -1.1 | 8.52 µM and 10.7 µM and 15.2 µM | -2.1 | -92.558 | 33.9 µM | -2.1 | -75.846 | 191 |  | 
CC(C)=CCN1CC[C@@]2(C)c3cc(O)ccc3C[C@@H]1[C@@H]2C.O=C(O)CCC(=O)O [(-)-Pentazocine succinate, reference compound] |  | -2.1 | 31.2 µM and 35.1 µM and 34.8 µM and 24.7 µM and 31 µM | -2.4 |  |  | 4 | 0 |  |  | 
CNC(=O)O/N=C/C(C)(C)S(C)(=O)=O [Aldoxycarb] |  | -2.1 |  | -1.1 and -2.1 |  |  |  |  |  |  | 
CCCCC(CC)CNC(=N)NC(=N)NCCCCCCNC(=N)NC(=N)NCC(CC)CCCC (stereo not shown) [Alexidine dihydrochloride] |  |  |  | -1.1 | -96.324 |  | 4 | 11.253 |  | 43.6 µM | 17.4 µM
Cl.O=C(c1ccc(F)cc1)C1CCN(CCn2c(=S)[nH]c3ccccc3c2=O)CC1 [Altanserin hydrochloride] |  | -2.1 | 13.8 µM | 4 | 0 |  | 4 | 0 |  |  | 
N=C(N)NC(=O)c1nc(Cl)c(N)nc1N [Amiloride hydrochloride] |  | -2.1 |  | 4 | -15.372 |  | 4 | 0 |  | 32.9 µM | 
Cc1cc(N)c2cc(NC(=O)Nc3ccc4nc(C)cc(N)c4c3)ccc2n1.Cl.Cl [Aminoquinuride dihydrochloride] |  |  | 38.9 µM and 30.9 µM | 4 | -15.256 |  | 4 | 0 |  |  | 
CN1CCCC(n2nc(Cc3ccc(Cl)cc3)c3ccccc3c2=O)CC1 (stereo not shown) [Azelastine hydrochloride] |  | -2.1 |  | -2.2 | -73.562 |  | 4 | 0 |  | 17.4 µM and 15.5 µM | 27.5 µM
COP(=S)(OC)SCn1nnc2ccccc2c1=O [Azinphos-methyl] |  | -2.1 and -1.1 |  |  |  |  | 4 |  |  |  | 
NC(=O)N=NC(N)=O [Azodicarbonamide] |  |  |  |  |  |  | 4 | 0 |  | 71 µM and 63.5 µM and 71.2 µM and 79.6 µM and 89.6 µM | 63.3 µM and 71.2 µM
CCN=C1C=CC(=C(c2ccc(N(CC)CC)cc2)c2ccc(N(CC)CC)cc2)c2ccccc21.Cl [Basic Blue 7] |  | -2.1 | 62.9 µM and 70.6 µM and 79.2 µM | -1.1 | -96.089 | 19.9 µM | 4 | 0 |  |  | 
CC(C)C[C@H]1C(=O)N2CCC[C@H]2[C@]2(O)O[C@](NC(=O)[C@@H]3C=C4c5cccc6[nH]c(Br)c(c56)C[C@H]4N(C)C3)(C(C)C)C(=O)N12 [Bromocriptine mesylate] |  | -1.1 |  | -1.1 | -70.597 |  | 4 | 0 |  | 5.38 µM and 2.7 µM | 
CCOP(=S)(OCC)Oc1cc(Cl)c(Br)cc1Cl [Bromophos-ethyl] |  |  |  | -3 | -50.884 |  | -1.1 | -91.453 |  |  | 
CNC(=O)O/N=C(\C)C(C)S(C)(=O)=O (stereo not shown) [Butoxycarboxim] |  | -2.1 |  | -2.2 | -49.747 |  | 4 | 0 |  | 355 µM and 398 µM and 447 µM | 794 µM
Cc1ccc(S(=O)(=O)Oc2ccc(N=Nc3ccc(-c4ccc(N=Nc5c(O)ccc6cc(S(=O)(=O)[O-])cc(S(=O)(=O)[O-])c56)c(C)c4)cc3C)cc2)cc1.[Na+].[Na+] [C.I. Acid Red 114] |  | 4 |  | -1.1 |  |  | 4 | 22.5 and 26.805 |  |  | 

SMILES | AChE inhibition (result in words) [1] | CC-v2 (curve classes) [2] | IC50 ([2]; read-out: IC50) | CC-v2 (curve classes) [1] | Efficacy [1] | IC50 ([1]; read-out: IC50) | CC-v2 (curve classes) [3] | Efficacy [3] | IC50 [3] [µM] | IC50 ([2]; IC50 (uM)) | IC50 ([1]; IC50 (uM))
Nc1c(/N=N/c2ccc(-c3ccc(/N=N/c4cc(S(=O)(=O)O)c5ccccc5c4N)cc3)cc2)cc(S(=O)(=O)O)c2ccccc12 [C.I. Direct Red 28] |  |  |  | -1.2 | -36.697 |  | 4 | 13.368 |  | 79.6 µM and 71 µM and 89.4 µM | 10 µM
O=C1c2c(O)ccc(Nc3ccc(CCO)cc3)c2C(=O)c2c([N+](=O)[O-])ccc(O)c21 [C.I. Disperse Blue 27] |  | -1.1 | 8.94 µM and 10 µM | -1.2 | -62.368 | 20 µM | 4 | 0 |  |  | 
COc1ccc2c(c1OC)CN1CCc3cc4c(cc3[C@@H]1C2)OCO4 [Canadine] |  | -1.1 and -2.1 |  | -1.1 | -74.441 |  | -3 | -45.32 |  | 8.71 µM and 11 µM and 9.77 µM | 
CCOP(=O)(OCC)OC(=CCl)c1ccc(Cl)cc1Cl [Chlorfenvinphos] |  | -1.1 |  | -1.1 | -95.584 |  | -1.1 | -96.159 |  |  | 
[H]/N=C(\N/C(=N/[H])NCCCCCCNC(=N)NC(=N)Nc1ccc(Cl)cc1)Nc1ccc(Cl)cc1 [Chlorhexidine dihydrochloride] |  |  |  | -1.1 | -89.988 |  | 4 | 14.978 |  | 72.3 µM and 64.4 µM | 22.9 µM
COP(=S)(OC)Oc1nc(Cl)c(Cl)cc1Cl [Chlorpyrifos-methyl] |  | 4 and -2.2 |  | 4 | 0 |  | 4 | 0 |  | 63.3 µM | 
CCOC(=O)COc1ccc2c(C)c(CCN(CC)CC)c(=O)oc2c1Cl.Cl [Cloricromen hydrochloride] |  | -2.1 | 13.8 µM and 15.5 µM | -2.1 | -70.529 | 15.5 µM | 4 | -27.609 |  |  | 
CNP(=O)(OC)Oc1ccc(C(C)(C)C)cc1Cl (stereo not shown) [Crufomate] |  | -2.1 |  | -2.2 | -70.92 |  | 4 | -16.11 |  | 71 µM and 39.9 µM and 63.3 µM | 79.6 µM
COP(=O)(OC)O/C(C)=C/C(=O)N(C)C [Dicrotophos] |  | -2.1 |  | -2.2 | -67.448 |  | 4 | 0 |  | 40.2 µM and 31.9 µM | 63.7 µM
CCCCCCCCCC[N+](C)(CCCCCCCCCC)CCC[Si](OC)(OC)OC.[Cl-] [Disiquonium chloride] |  | 4 |  | -3 | -65.382 | 79.6 µM | 4 | 0 |  |  | 
N#Cc1sc2c(=O)c3ccccc3c(=O)c=2sc1C#N [Dithianon] |  | -2.1 |  | 4 | -13.233 |  | 4 | 0 |  | 44.8 µM and 63.3 µM | 
CCCCCCCCCCCCc1ccc(S(=O)(=O)O)cc1 [Dodecylbenzenesulfonic acid] |  |  | 79.6 µM and 89.4 µM and 71 µM | -2.1 and -1.1 |  | 63.3 µM and 56.4 µM and 39.9 µM | 4 |  |  |  | 
CN(CCOc1ccc(NS(C)(=O)=O)cc1)CCc1ccc(NS(C)(=O)=O)cc1 [Dofetilide] |  |  |  |  | -14.56 |  |  | 0 |  | 17.4 µM | 
COc1cc2nc(N3CCN(C(=O)C4COc5ccccc5O4)CC3)nc(N)c2cc1OC (stereo not shown) [Doxazosin mesylate] |  |  |  | -2.2 | -37.943 |  | 4 | 0 |  |  | 
COP(N)(=O)SC (stereo not shown) [Methamidophos] |  | -2.1 |  | -2.1 |  |  |  |  |  |  | 
CCOP(=S)(OCC)Oc1cc(C)nc(N(CC)CC)n1 [Pirimiphos-ethyl] | did not show effects |  |  | 4 | -15.947 |  | 4 | -16.211 |  |  | 
CNC(=C[N+](=O)[O-])NCCSCc1ccc(CN(C)C)o1 [Ranitidine, reference compound] |  | -1.1 |  |  |  |  |  |  |  |  | 
CCOC(=O)CC(SP(=S)(OC)OC)C(=O)OCC (stereo not shown) [malathion] | not identified to inhibit AChE |  |  |  |  |  |  |  |  |  | 

— paper PMC8041433 (Environmental Health Perspectives, 2021)
